Laboratory results published in article PMC9497102, “Thiosemicarbazone Derivatives Developed to Overcome COTI-2 Resistance” (Cancers, 2022).
Converted amounts (≈) assume the structure as drawn.

Assays:
[1] = Thermodynamic solubility in water at pH 7.4 (UV-vis); type: physicochemical; conditions: water at pH 7.4 (20 mM HEPES buffer), aqueous buffer, thermodynamic from solid, water pH 7.4 (20 mM HEPES), 25 °C, read-out: S (meas.)
Protocol: The thermodynamic solubility of COTI-NMeCy, COTI-Nme2, COTI-NH2, and COTI-2 was measured for the saturated solutions in water at pH 7.4 (20 mM HEPES buffer) at 25.0 ± 0.1 °C. The concentrations of the compounds were determined by UV-vis spectrophotometry using stock solutions of the compounds with known concentrations dissolved in pure DMSO, and 50% and 1% (v/v) DMSO/buffered aqueous solution for the calibration. The parallel artificial membrane permeability assay (PAMPA) was applied for the ligands with a Corning Gentest pre-coated PAMPA Plate System. Peff values were calculated according to the equation reported by Yu et al..

[2] = Iron(III) complex formation, UV-vis spectrophotometric titrations; type: physicochemical; conditions: for pFe(III)*: Fe(III) hydroxido species also considered as unbound metal, cFe = 1 μM; for pFe(III)* / pFe(III): cL = 10 μM, pH = 7.40; for pFe(III): –log[free Fe(III)] calculated at cFe = 1 μM
Protocol: (§1) The UV-vis spectra were recorded using an Agilent Cary 8454 diode array spectrophotometer in the 200 to 950 nm window, and the path length was varied between 1 and 5 cm, depending on the solubility (thus the applicable concentration). For the spectrophotometric titrations, the same instruments (Metrohm 665 Dosimat burette, Orion 710A pH-meter, Metrohm combined pH glass electrode) and experimental setup (ionic strength: 0.10 M (KCl); titrant: 0.10 M carbonate-free KOH solution in 30% (v/v) DMSO/H2O; samples: prepared in 30% (v/v) DMSO/H2O; calibration: method of Irving et al.; pH range: 1.0 to 13.5; and sample volume: 10 cm^3) were used as in our previous work. Argon overpressure was used for the Fe(II)-containing samples when the Fe(II) stock solution was added to the samples in tightly closed titration vessels, which were previously completely deoxygenated (for 20 min). Measurements were taken with ligands (10–80 μM, depending on solubility) in the presence of 1, 0.5, and 0.3 equiv. of Cu(II), Fe(II), and Fe(III) ions. Equilibrium constants, such as the proton dissociation constants (pKa) of the ligands, the overall stability constants (logβ) of the metal complexes, and the UV-vis spectra of the individual ligand or complex species were computed using the program PSEQUAD [18], as was the case in our previous works.

[3] = Iron(II) complex formation, UV-vis spectrophotometric titrations (anaerobic); type: physicochemical; conditions: for pFe(II): –log[free Fe(II)] calculated at cFe = 1 μM, cL = 10 μM, pH = 7.40
Protocol: as §1

[4] = Cyclic voltammetry of copper(II)–ligand (1:1) systems; type: physicochemical; conditions: cL = cCu(II) = 1 mM, pH 7.40, 25 °C, 90% (v/v) DMSO/H2O, 0.01 V/s scan rate
Protocol: Cyclic voltammograms for the Fe(III) and Cu(II) complexes were recorded in 90% (v/v) DMSO/water solution containing 1 mM ligand and 0.5 mM FeCl3 or 1 mM CuCl2 using a conventional three-electrode system under nitrogen atmosphere and a PC-Controlled Electrochemical Measurement System (EF 451). The ionic strength was 0.10 M, adjusted by TBAN. Samples were purged for 15 min with Ar before recording the cyclic voltammograms. Platinum electrodes were used as the working and auxiliary electrodes, and Ag/AgCl (3 M KCl) was applied as the reference electrode. The electrochemical potentials were converted into the normal hydrogen electrode (NHE) scale by adding 0.222 V. The instrument was calibrated with an aqueous solution of K3[Fe(CN)6] (E1/2 = +0.386 V vs. NHE). Redox potentials were obtained at different scan rates (5–25 mV/s) in the range of −0.8 to +0.1 V. The dependence of the peak current values of the square root of the scan rates is shown in Figure S5 for the iron and copper complexes of COTI-NMeCy.

[5] = Spectrophotometric redox reaction of copper(II) complexes with GSH or AA; type: physicochemical; conditions: 300 equiv. GSH, pH 7.4, after formation of mixed-ligand GSH adduct
Protocol: A Hewlett Packard 8452A diode array spectrophotometer and a special, tightly closed tandem cuvette (Hellma Tandem Cell, 238-QS) were used to monitor the redox reactions of the Cu(II) and Fe(III) complexes with GSH and AA. The spectra were recorded at a physiological pH (pH = 7.4, 50 mM HEPES, I = 0.1 M KCl) when the metal complexes:GSH or AA ratio was 1:300 (ccomplex = 30 μM, cGSH or AA = 9 mM). The stock solutions of the complexes and the GSH and AA solutions were freshly prepared before every measurement. In the first half of the cuvette, the ligand was mixed with the complex, and the other contained the reducing agent. Both isolated parts of the cuvette were deoxygenated with argon for 10 min. The first spectrum was recorded before mixing, and then after mixing, the reduction was usually followed until no further absorbance change was observed.

SW480 cells = test: Cell cycle analysis by PI staining and flow cytometry; type: cell-based, human; conditions: 24 h
Protocol: The cell cycle phases were analyzed by staining the DNA of ethanol-fixed cells with PI, as previously described. SW480 and SW480/Coti cells were seeded at a density of, 2 × 10^5 cells/well in 6-well plates and treated with the indicated concentrations of COTI-2 and COTI-NMe2 for 24 h. Then, cells were collected by trypsinization and fixed in cold 70% ethanol. In order to digest RNA, the cells were treated with RNase (0.2 mg/mL, Sigma) and, subsequently, DNA was stained with PI (1 µg/mL). Fluorescence was measured by flow cytometry (FACS Calibur, Becton Dickinson, Ashland, CA, USA) and cell cycle phases were analyzed using Cell Quest Pro software.

[6] = T = 25.0 °C, I = 0.10 M (KCl), 30% (v/v) DMSO/H2O

| SMILES | solubility thermodynamic [1] [µM] | pFe(III)* [2] | logβ [Fe(III)L2]^+ [2, 6] | logβ [Fe(III)L]^2+ [2, 6] | pFe(III) [2] | logβ [Fe(II)L2] [3, 6] | logβ [Fe(II)L]^+ [3, 6] | pFe(II) [3] | E′ vs. NHE, copper(II)–ligand (1:1) systems [4] [V] | redox reaction of the copper(II) complex with GSH [5] | effect on G2/M population (SW480 cells) | logβ [Fe(III)LH]^3+ [2, 6] | free ligand in the presence of iron(III) ([2]; calculated distribution, 1 µM COTI-2, 2:1 ligand:iron(III), pH 7.4) | logβ [Fe(II)L2H2]^2+ [3, 6] | logβ [Fe(II)L2H]^+ [3, 6] | logβ [Fe(II)LH]^2+ [3, 6] |
| --- | --- | --- | --- | --- | --- | --- | --- | --- | --- | --- | --- | --- | --- | --- | --- | --- |
| CN(C)C(=S)NN=C1CCCc2cccnc21 (mixture of isomers) [COTI-NMe2, 2-(6,7-Dihydroquinolin-8(5H)-ylidene)-N^4,N^4-dimethylhydrazine-1-carbothioamide] | 417 | 11.1 | 32.77 ± 0.03 | 17.25 ± 0.02 | 19.2 | 31.33 ± 0.09 | 17.62 ± 0.03 | 17.8 | -0.24 | no measurable spectral changes were seen | significant reduction in the G2/M population |  |  |  |  |  |
| S=C(N/N=C1\CCCc2cccnc21)N1CCN(c2ccccn2)CC1 [COTI-2, 4-(pyridine-2-yl)-N-([(8E)-5,6,7,8-tetrahydroquinolin-8-ylidene]amino)piperazine-1-carbothioamide] | 0.41 (≈ 0.15 µg/mL) | 10.6 | 29.98 ± 0.06 | 18.02 ± 0.03 | 18.6 | 30.63 ± 0.09 | 18.28 ± 0.06 | 19.3 | -0.19 |  | significant reduction in the G2/M population | 21.16 ± 0.03 | 10–20% | 41.18 ± 0.06 | 36.74 ± 0.09 | 21.00 ± 0.03 |
| CN(C(=S)N/N=C1\CCCc2cccnc21)C1CCCCC1 [COTI-NMeCy, N-Cyclohexyl-2-(6,7-dihydroquinolin-8(5H)-ylidene)-N^4-methylhydrazine-1-carbothioamide] | 3.9 (≈ 1.23 µg/mL) | 9.9 | 32.20 ± 0.03 | 17.06 ± 0.02 | 18.0 | 31.04 ± 0.03 | 18.66 ± 0.03 | 16.9 | -0.22 | no measurable spectral changes were seen |  |  |  |  |  |  |
